Values joined by “and” are separate entries in the source; they are usually repeats but may differ in a detail not shown here. Identical values can stand only once.

The test has as its system V. harveyi MM32 (LuxS-), AI-2-induced luminescence, 5 h. The experiment in a line: AI-2 driven bioluminescence decrease, LuxPQ pathway – strain MM32 LuxS-null, luminescence, dry powder, set 2, mechanism study for V. harveyi quorum sensing inhibitors, dose response (AID 493119).

Consider `Cn1cnc(S(=O)(=O)Nc2ccc(OC(F)(F)F)cc2)c1`, for which the concentration at half-maximal activity (AC50) is 1.88 µM and 2.29 µM.
With `Cc1cccc(NC(=O)c2ccc(Oc3ccccc3)cc2)n1`, the AC50 was 6.55 µM.
As for `C=Cn1c(C(=O)O)ccc1-c1ccc(CC)cc1`, the figure is 1.72 µM and 1.57 µM; as for `COc1cc(NC(=O)CN2C(=O)NC(c3ccccc3)(c3ccccc3)C2=O)cc(OC)c1`, 1.17 µM and 1.13 µM.
In the case of `CCc1ccc(S(=O)(=O)Nc2ccc(Br)cn2)cc1`, the AC50 is 2 µM.
As for `Cc1cccc(NS(=O)(=O)c2ccc(Oc3ccccc3)cc2)n1`, the concentration at half-maximal activity (AC50) is 1.29 µM and 1.61 µM.
Next, `O=C1C=C/C(=C/Br)O1`: 3.97 µM.

What is called AC50 is the concentration at which the activity in the assay is half-maximal.
